“Also recorded” adds a separate entry of the source.

The subject of data set [1] is Leydig cells. To be noted: Leydig cells isolated from 60 days old rats, in vitro; cited from earlier work.
Data set [2] in a line: RIA for serum LH, T4, triiodothyronine and testosterone of treated rats. In kind it is in vivo, Brown Norway rat. The text has this:
Male Brown Norway rats aged 3, 6, 12 (n=8 per group; 3M, 6M, and 12M, respectively), and 18 months (M) (n=32; 18M) were purchased from Harlan (Madison, Wis., United States of America). The 18M rats were divided equally into four groups (n=8 per group). Under deep inhalation anesthesia (METOFANE™; Malincroft Veterinary, Inc., Mundelein, Ill., United States of America), the four groups of 18M rats were implanted subdermally with ALZET™ mini-osmotic pumps (model 2ML4; Alza Corporation, Palo Alto, Calif., United States of America), containing saline (control), LH (24 μg/day; National Hormone and Pituitary Program, Los Angeles, Calif., United States of America), thyroxine (T4; 5 μg/day; Sigma, St. Louis, Mo., United States of America), and LH and T4 (LH+T4; two pumps, 24 […] of T4), respectively, for 4 weeks (to 19 months [19M] of age). These doses of LH (Mendis-Handagama et al., (1998) Tissue Cell 30:64-73) and thyroid hormone (Ariyaratne et al., (2000) Biol. Reprod. 63:1115-1123) were used based on previously published studies. Rats were maintained under conditions of controlled temperature (25° C.) and lighting (14 hour/10 hour light/dark cycle) and were housed individually (one rat per cage). The animals were fed with Agway PROLAB™ rat formula (Agway, Syracuse, N.Y., United States of America) and water ad libitum until they were sacrificed. The animal protocol employed (No. 488) meets the guidelines of the National Institutes of Health and was approved by the University of Tennessee Animal Care and Concerns Committee. […]
Serum LH hormone was quantified using a commercially available rat luteinizing hormone (rLH) kit (Amersham Pharmacia Biotech, Piscataway, N.J., United States of America). […]
The PC SAS software (SAS Institute Inc., Cary, N.C., United States of America) was used to analyze the data. Results are expressed as mean± standard error of the mean (SEM). […]

Data set [3] has as its system Leydig cells. Nature of the data set: LH-stimulated testicular steroidogenesis in vitro (testis of treated rats incubated 3 hours, testosterone by RIA). In kind it is in vivo, Brown Norway rat. An excerpt: Male Brown Norway rats aged 3, 6, 12 (n=8 per group; 3M, 6M, and 12M, respectively), and 18 months (M) (n=32; 18M) were purchased from Harlan (Madison, Wis., United States of America). The 18M rats were divided equally into four groups (n=8 per group). Under deep inhalation anesthesia (METOFANE™; Malincroft Veterinary, Inc., Mundelein, Ill., United States of America), the four groups of 18M rats were implanted subdermally with ALZET™ mini-osmotic pumps (model 2ML4; Alza Corporation, Palo Alto, Calif., United States of America), containing saline (control), LH (24 μg/day; National Hormone and Pituitary Program, Los Angeles, Calif., United States of America), thyroxine (T4; 5 μg/day; Sigma, St. Louis, Mo., United States of America), and LH and T4 (LH+T4; two pumps, 24 […] of T4), respectively, for 4 weeks (to 19 months [19M] of age). […]
One testis of each rat in the 3M, 6M, 12M, and 19M age groups was removed, cleaned of fat, and weighed on a Mettler H54 balance to obtain the fresh testis weight. Using the flotation technique (Mendis-Handagama et al., (1988) Am. J. Anat. 181:12-22; Mori & Christensen, (1980) J. Cell. Biol. 84:340-354; and Mendis-Handagama & Ewing, (1990) J. Microsc. (Oxf) 159:73-82), the specific gravity of the fresh testis was determined as described previously (Mori & Christensen, (1980) J. Cell. Biol. 84:340-354 and Mendis-Handagama & Ewing, (1990) J. Microsc. (Oxford) 159:73-82), and the fresh testis volume was calculated by dividing the fresh testis weight by the specific gravity (in metric units, specific gravity equals density). […] Testosterone levels in the incubation medium were measured by RIA using commercially available kits (COAT-A-COUNT™), and the details of the assay are given above (see Laboratory Example 4). Testosterone-secretory capacity per Leydig cell was calculated by dividing the testosterone-secretory capacity per testis by the number of Leydig cells per testis. […]

Data set [4] concerns testis of Brown Norway rats. Put plainly: Microscopy and stereology of the testis of aged Brown Norway rats treated 4 weeks with LH, T4 or LH+T4. In kind it is in vivo, Brown Norway rat. The text has this:
Male Brown Norway rats aged 3, 6, 12 (n=8 per group; 3M, 6M, and 12M, respectively), and 18 months (M) (n=32; 18M) were purchased from Harlan (Madison, Wis., United States of America). The 18M rats were divided equally into four groups (n=8 per group). Under deep inhalation anesthesia (METOFANE™; Malincroft Veterinary, Inc., Mundelein, Ill., United States of America), the four groups of 18M rats were implanted subdermally with ALZET™ mini-osmotic pumps (model 2ML4; Alza Corporation, Palo Alto, Calif., United States of America), containing saline (control), LH (24 μg/day; National Hormone and Pituitary Program, Los Angeles, Calif., United States of America), thyroxine (T4; 5 μg/day; Sigma, St. Louis, Mo., United States of America), and LH and T4 (LH+T4; two pumps, 24 […] of T4), respectively, for 4 weeks (to 19 months [19M] of age). These doses of LH (Mendis-Handagama et al., (1998) Tissue Cell 30:64-73) and thyroid hormone (Ariyaratne et al., (2000) Biol. Reprod. 63:1115-1123) were used based on previously published studies. Rats were maintained under conditions of controlled temperature (25° C.) and lighting (14 hour/10 hour light/dark cycle) and were housed individually (one rat per cage). The animals were fed with Agway PROLAB™ rat formula (Agway, Syracuse, N.Y., United States of America) and water ad libitum until they were sacrificed. The animal protocol employed (No. 488) meets the guidelines of the National Institutes of Health and was approved by the University of Tennessee Animal Care and Concerns Committee.
Pumps were filled with either saline, LH, or T4, and were primed in saline for 3 hours before implantation so that they would deliver their contents immediately on subdermal implantation into the interscapular region. The LH+T4 rats received two pumps each, one containing LH and one containing T4; the other rats received one pump containing either saline, LH, or T4. After 4 weeks of treatment, rats were sacrificed. In addition, implanted pumps were removed and examined to verify that they had delivered their contents as expected.
One testis of each rat in the 3M, 6M, 12M, and 19M age groups was removed, cleaned of fat, and weighed on a Mettler H54 balance to obtain the fresh testis weight. Using the flotation technique (Mendis-Handagama et al., (1988) Am. J. Anat. 181:12-22; Mori & Christensen, (1980) J. Cell. Biol. 84:340-354; and Mendis-Handagama & Ewing, (1990) J. Microsc. (Oxf) 159:73-82), the specific gravity of the fresh testis was determined as described previously (Mori & Christensen, (1980) J. Cell. Biol. 84:340-354 and Mendis-Handagama & Ewing, (1990) J. Microsc. (Oxford) 159:73-82), and the fresh testis volume was calculated by dividing the fresh testis weight by the specific gravity (in metric units, specific gravity equals density). This measurement is required to express Leydig cell numbers per testis, because numerical density is obtained as a number per unit volume of the testis. The testis was then decapsulated, and the entire testis was incubated for 3 hours in the same medium as described previously (Ariyaratne et al., (2000) Biol. Reprod. 63:1115-1123; Mendis-Handagama et al., (1998) Biol. Reprod. 59:351-357; Mendis-Handagama et al., (1990) J. Androl. 11:548-554; Ariyaratne et al., (2000) Biol. Reprod. 63:493-502; and Ariyaratne & Mendis-Handagama, (2000) Biol. Reprod. 62:158-168) to determine the LH-stimulated testosterone-secretory capacity per testis in vitro. Testosterone levels in the incubation medium were measured by RIA using commercially available kits (COAT-A-COUNT™), and the details of the assay are given above (see Laboratory Example 4). Testosterone-secretory capacity per Leydig cell was calculated by dividing the testosterone-secretory capacity per testis by the number of Leydig cells per testis. […]

The target of a further data set is rat growth hormone (rat) (UniProt P01244). Nature of the data set: RIA, rat LH kit (Amersham Pharmacia Biotech); cross-reactivity against rat LH as reference.
Sequence of UniProt P01244 (P01244 27-216 limits assumed): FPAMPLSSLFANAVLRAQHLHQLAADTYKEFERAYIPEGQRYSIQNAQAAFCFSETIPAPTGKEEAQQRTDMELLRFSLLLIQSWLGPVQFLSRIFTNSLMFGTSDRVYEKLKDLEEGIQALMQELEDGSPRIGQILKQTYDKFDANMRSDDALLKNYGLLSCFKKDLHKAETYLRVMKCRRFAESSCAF
Data set [5] addresses rat follicle stimulating hormone (FSH) (rat) (UniProt P11962). The data set is described as above.
For the next data set, the target named is rat prolactin (rat) (UniProt P01237). The description is as above.
Sequence of UniProt P01237 (P01237 30-226 limits assumed): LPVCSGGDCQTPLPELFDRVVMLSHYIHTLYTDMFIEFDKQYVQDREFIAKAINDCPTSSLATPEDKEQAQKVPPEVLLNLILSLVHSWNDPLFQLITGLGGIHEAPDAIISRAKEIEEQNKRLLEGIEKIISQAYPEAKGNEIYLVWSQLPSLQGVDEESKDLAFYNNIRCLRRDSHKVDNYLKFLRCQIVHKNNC
Another data set deals with rat TSH (rat) (UniProt P11962). Described as above.
The target of data set [6] is rat adenocorticotropic hormone (ACTH) (rat) (UniProt P01194). The data set is described as above.
Sequence of UniProt P01194 (P01194 124-162 limits assumed): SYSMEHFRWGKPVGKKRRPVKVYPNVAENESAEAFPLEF
Where [7] appears, read: 19M Brown Norway rats after 4 weeks subdermal osmotic pump (LH 24 μg/day, T4 5 μg/day), mean, n=8.

`N[C@@H](Cc1cc(I)c(Oc2ccc(O)c(I)c2)c(I)c1)C(=O)O` [T3, L-3,5,3′-triiodothyronine]: in the data set on Leydig cells [1], the “Effect on testosterone secretion of Leydig cells” value was “increased testosterone secretion of Leydig cells in a dose dependent fashion up to 50 ng” and the “Minimum effective dose for testosterone production” value is 25 ng.

For the compound `N[C@@H](Cc1cc(I)c(Oc2cc(I)c(O)c(I)c2)c(I)c1)C(=O)O` [T4, L-3,5,3′,5′-tetraiodothyronine], the “Mean Serum Testosterone” value in data set [2] (setting [7]) is 73 ng/dL. Further, the “Serum LH levels, comparison between groups in words” value in data set [2] (19M treated rats versus 3M through 12M rats) is on record as “reduced significantly”. The “Serum testosterone levels, comparison between groups in words” value in data set [2] (19M treated rats versus 19M controls and younger rats, P<0.05) was “significantly greater than 19M controls; also recorded: significantly lower than those in 3M through 12M rats; also recorded: not sufficient to upgrade the serum testosterone levels in 19M rats to those of 3M and 6M rats”. Moreover, in the data set with Leydig cells [3] (19M treated rats versus younger rats), the “LH-stimulated testosterone-secretory capacity per testis and per Leydig cell in vitro, comparison between groups in words” value was “comparable to those in 12M rats”. In the data set with Leydig cells [3] (LH-stimulated, in vitro, 3 hours incubation, testis of 19M rats treated 4 weeks (LH 24 μg/day, T4 5 μg/day), mean, n=8), the “Mean Testosterone-Secretory Capacity Per testis” value is 14,748 ng. For the same compound, in the data set with Leydig cells [3] (LH-stimulated, in vitro, capacity per testis divided by number of Leydig cells per testis, 19M rats treated 4 weeks), the “Mean Testosterone-Secretory Capacity Per Leydig cell” value turned out to be 0.67 pg. In addition, in data set [4] (setting [7]), the “Average volume of a Leydig cell” value is reported as 1998 μm^3, the “Leydig cell number per Testis” value was 21.80 10^6 and the “Volume density of Leydig cells” value turned out to be 2.38%. In addition, in data set [4] (19M treated rats versus 19M control and younger rats, P<0.05), the “Absolute volume of Leydig cells per testis, comparison between groups in words” value is recorded as “higher values compared to 19M control rats; also recorded: not significantly different from those of 12M rats”. In data set [4] (19M treated rats versus younger rats, P<0.05), the “Average volume of a Leydig cell, comparison between groups in words” value was “significantly lower than those in 3M and 6M rats; also recorded: partially effective”. Further, the “Size of Leydig cell profiles in tissue sections” value in data set [4] (light microscopy, 19M treated rats versus 19M control rats) is “much larger than those in 19M control rats”. For the same compound, the “Mean Absolute Volume of Leydig cells” value in [4] (per testis, 19M Brown Norway rats after 4 weeks subdermal osmotic pump (LH 24 μg/day, T4 5 μg/day), mean, n=8) is 43.57 mm^3.

“antibody for LH of the commercially available rat luteinizing hormone (rLH) RIA kit (Amersham Pharmacia Biotech)”: the cross-reactivity with rat growth hormone (rat) was 0.1%; in [5], < 0.016%; with rat prolactin (rat), < 0.8%; with rat TSH (rat), 0.66%; in data set [6] it was < 0.00092%.

Values taken from patent publication US7595056B1, “Methods of rejuvenating Leydig cells and enhancing testosterone production in a male subject” (University of Tennessee Research Foundation, priority 2002, dated 2009).
